Assay: xn = mol fraction of the nth substance listed
Details: Liquid, Taylor dispersion method, x1 = 0

## N#N [nitrogen] + O
298 K, 12000 kPa
  binary diffusion coefficient: 1.99e-09 m2/s
298 K, 25000 kPa
  binary diffusion coefficient: 2e-09 m2/s
298 K, 44600 kPa
  binary diffusion coefficient: 1.98e-09 m2/s
323 K, 14600 kPa
  binary diffusion coefficient: 3.28e-09 m2/s
323 K, 25100 kPa
  binary diffusion coefficient: 3.47e-09 m2/s
323 K, 45000 kPa
  binary diffusion coefficient: 3.2e-09 m2/s
373 K, 14800 kPa
  binary diffusion coefficient: 6.62e-09 m2/s
373 K, 45000 kPa
  binary diffusion coefficient: 6.42e-09 m2/s
423 K, 26900 kPa
  binary diffusion coefficient: 1.07e-08 m2/s
423 K, 45900 kPa
  binary diffusion coefficient: 1.04e-08 m2/s

## O=C=O [carbon dioxide] + O
298 K, 14000 kPa
  binary diffusion coefficient: 2.23e-09 m2/s
298 K, 31600 kPa
  binary diffusion coefficient: 2.26e-09 m2/s
298 K, 47700 kPa
  binary diffusion coefficient: 2.22e-09 m2/s
323 K, 14200 kPa
  binary diffusion coefficient: 3.64e-09 m2/s
323 K, 31800 kPa
  binary diffusion coefficient: 3.72e-09 m2/s
323 K, 48600 kPa
  binary diffusion coefficient: 3.94e-09 m2/s
348 K, 14900 kPa
  binary diffusion coefficient: 5.39e-09 m2/s
348 K, 31800 kPa
  binary diffusion coefficient: 5.31e-09 m2/s
348 K, 49300 kPa
  binary diffusion coefficient: 5.37e-09 m2/s
373 K, 14900 kPa
  binary diffusion coefficient: 7.42e-09 m2/s
373 K, 31000 kPa
  binary diffusion coefficient: 7.52e-09 m2/s
373 K, 48500 kPa
  binary diffusion coefficient: 7.68e-09 m2/s
398 K, 14300 kPa
  binary diffusion coefficient: 9.95e-09 m2/s
398 K, 30900 kPa
  binary diffusion coefficient: 1.01e-08 m2/s
398 K, 48000 kPa
  binary diffusion coefficient: 1.02e-08 m2/s
423 K, 14300 kPa
  binary diffusion coefficient: 1.23e-08 m2/s
423 K, 48000 kPa
  binary diffusion coefficient: 1.22e-08 m2/s

— the NIST ThermoML archive (doi:10.1021/je401008s)
